Reference: article PMC5881582 (ChemMedChem, 2017)
Where two headings read alike, the source gives them in different places.

How the values were obtained:
[1] = system: acetylation of histones H3 and H4 in HT-29 cells; assay: histone H3 and H4 acetylation by Western blot; format: cell-based, human; settings: HT-29, 5 µM; for time-dependent increase in acetylation of H3 and H4: 24 h
[2] = system: acetylation of histones H3 and H4 in SH-SY5Y cells; assay: histone H3 and H4 acetylation by Western blot; format: cell-based, human; settings: 5 µM; for acetylation of H3 and H4: 6 h; for time-dependent increase in acetylation of H3 and H4: 24 h
[3] = system: acetylation of α-tubulin (HDAC6 substrate) in HT-29 cells; assay: α-tubulin acetylation by Western blot; format: cell-based, human; settings: HT-29, 5 µM; for acetylation level of α-tubulin: 6 h; for time-dependent increase in acetylation of α-tubulin: 24 h
[4] = system: acetylation of α-tubulin (HDAC6 substrate) in SH-SY5Y cells; assay: α-tubulin acetylation by Western blot; format: cell-based, human; settings: 5 µM, 6 h
recombinant human HDAC1 = recombinant human HDAC1 (Homo sapiens, UniProt Q13547); assay: competitive fluorescence-based HDAC deacetylase assay, Boc-L-Lys; format: biochemical; settings: read-out: IC50 HDAC1; mean ± SD of at least two independent experiments
recombinant human HDAC1, sequence (Q13547 whole entry): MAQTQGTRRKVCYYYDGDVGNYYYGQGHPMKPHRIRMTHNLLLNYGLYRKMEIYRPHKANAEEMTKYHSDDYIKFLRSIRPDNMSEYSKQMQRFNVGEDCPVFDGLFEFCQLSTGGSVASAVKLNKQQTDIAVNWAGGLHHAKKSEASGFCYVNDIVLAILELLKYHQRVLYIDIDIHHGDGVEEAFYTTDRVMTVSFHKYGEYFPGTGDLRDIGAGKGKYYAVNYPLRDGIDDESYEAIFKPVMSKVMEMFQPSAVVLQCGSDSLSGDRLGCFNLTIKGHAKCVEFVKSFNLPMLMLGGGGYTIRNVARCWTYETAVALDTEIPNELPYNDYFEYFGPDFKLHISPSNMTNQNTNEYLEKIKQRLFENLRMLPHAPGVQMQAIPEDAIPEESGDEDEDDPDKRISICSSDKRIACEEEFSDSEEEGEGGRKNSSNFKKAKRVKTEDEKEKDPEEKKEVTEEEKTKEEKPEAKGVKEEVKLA

recombinant human HDAC2 = recombinant human HDAC2 (Homo sapiens, UniProt Q92769); assay: as above; format: biochemical; settings: for Selectivity HDAC2/HDAC1: HDAC2 IC50 divided by HDAC1 IC50; for IC50: read-out: IC50 HDAC2, mean ± SD of at least two independent experiments
recombinant human HDAC2, sequence (Q92769 whole entry): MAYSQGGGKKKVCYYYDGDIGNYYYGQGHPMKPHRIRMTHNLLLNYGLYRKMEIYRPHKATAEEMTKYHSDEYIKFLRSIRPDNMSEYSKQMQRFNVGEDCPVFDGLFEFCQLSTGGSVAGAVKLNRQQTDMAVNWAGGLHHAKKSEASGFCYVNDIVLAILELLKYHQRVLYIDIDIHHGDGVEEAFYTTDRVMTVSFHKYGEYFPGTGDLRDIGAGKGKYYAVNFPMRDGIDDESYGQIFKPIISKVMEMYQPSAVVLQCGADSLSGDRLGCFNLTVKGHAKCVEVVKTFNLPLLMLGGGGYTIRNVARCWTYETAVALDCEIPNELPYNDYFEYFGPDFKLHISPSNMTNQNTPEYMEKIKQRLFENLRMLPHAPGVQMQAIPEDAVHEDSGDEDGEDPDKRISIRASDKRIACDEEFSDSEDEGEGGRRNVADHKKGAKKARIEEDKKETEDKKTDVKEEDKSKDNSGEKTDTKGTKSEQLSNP

recombinant human HDAC3 = recombinant human HDAC3 (Homo sapiens, UniProt O15379); assay: as above; format: biochemical; settings: for Selectivity HDAC3/HDAC1: HDAC3 IC50 divided by HDAC1 IC50; for IC50: read-out: IC50 HDAC3, mean ± SD of at least two independent experiments
recombinant human HDAC3, sequence (O15379 whole entry): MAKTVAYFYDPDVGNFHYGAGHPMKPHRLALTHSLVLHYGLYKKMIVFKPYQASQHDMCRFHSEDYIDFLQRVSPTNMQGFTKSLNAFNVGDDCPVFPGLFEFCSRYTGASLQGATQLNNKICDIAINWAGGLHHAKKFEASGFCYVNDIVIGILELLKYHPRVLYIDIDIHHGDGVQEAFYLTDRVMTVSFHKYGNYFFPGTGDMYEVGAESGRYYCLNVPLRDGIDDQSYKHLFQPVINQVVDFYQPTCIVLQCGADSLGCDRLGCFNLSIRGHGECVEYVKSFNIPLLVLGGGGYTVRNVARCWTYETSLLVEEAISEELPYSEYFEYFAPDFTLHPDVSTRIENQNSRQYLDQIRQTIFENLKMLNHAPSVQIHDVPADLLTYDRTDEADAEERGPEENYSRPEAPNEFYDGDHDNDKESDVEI
recombinant human HDAC3, sequence (Q9Y618 395-489 partner limits assumed): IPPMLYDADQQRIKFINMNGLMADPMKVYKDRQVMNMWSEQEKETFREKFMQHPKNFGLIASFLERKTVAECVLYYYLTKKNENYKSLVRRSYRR

[5] = biological target: T1, purified recombinant human HDAC8 (Homo sapiens, UniProt Q9BY41); assay: fluorescence-based HDAC8 assay, commercially available HDAC substrate; format: biochemical; settings: for Selectivity HDAC8/HDAC1: HDAC8 IC50 divided by HDAC1 IC50; for IC50: read-out: IC50 HDAC8, mean ± SD of at least two independent experiments
T1 sequence (Q9BY41 1-377): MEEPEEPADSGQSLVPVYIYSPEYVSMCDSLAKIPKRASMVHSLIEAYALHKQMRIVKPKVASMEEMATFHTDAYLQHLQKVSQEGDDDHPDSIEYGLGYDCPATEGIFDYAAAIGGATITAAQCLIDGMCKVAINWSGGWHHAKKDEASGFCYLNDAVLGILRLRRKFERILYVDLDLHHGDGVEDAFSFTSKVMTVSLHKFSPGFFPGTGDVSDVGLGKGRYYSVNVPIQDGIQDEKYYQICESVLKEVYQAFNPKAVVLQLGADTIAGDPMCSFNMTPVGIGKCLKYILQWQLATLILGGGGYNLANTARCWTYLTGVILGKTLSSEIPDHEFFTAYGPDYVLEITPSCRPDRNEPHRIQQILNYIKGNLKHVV

HT-29 cells = assay: antiproliferative alamarBlue assay; settings: n=4
SH-SY5Y cells = assay: antiproliferative alamarBlue assay; settings: n=4
[6] = plasma and brain concentrations after i.p. dosing; format: in vivo, Spraugue Dawley rats
microsomal stability [7] = format: in vitro ADME, rat; settings: after 30 min incubation
microsomal stability [8] = format: in vitro ADME, human; settings: after 30 min incubation
MCF-7 cells = assay: antiproliferative alamarBlue assay; settings: 10 µM, NA = no inhibition at 10 µM
[9] = read-out: EC50 HT-29 24 h, 24 h
[10] = read-out: EC50 HT-29 48 h, 48 h
[11] = read-out: EC50 SH-SY5Y 24 h, 24 h
[12] = read-out: EC50 SH-SY5Y 48 h, 48 h

Structure (SMILES): O=C(CCCCCCC(=O)Nc1ccccc1)NO [compound 1, SAHA, reference compound]
- acetylation level of H3 ([1]; 6 h): increased the acetylation level of H3
- time-dependent increase in acetylation of H3 and H4 [1]: unable to cause any significant time-dependent increase
- acetylation of H3 and H4 [2]: acetylation of both H3 and H4 was increased
- time-dependent increase in acetylation of H3 and H4 [2]: time-dependent increase in acetylation of H3 and H4 was observed
- acetylation level of α-tubulin [3]: increased the acetylation level of α-tubulin
- time-dependent increase in acetylation of α-tubulin [3]: time-dependent increase in acetylation of α-tubulin
- acetylation of α-tubulin [4]: increased the acetylation of α-tubulin

Structure (SMILES): O=C(CCCCCCNCc1ccc2ccccc2c1)NO [compound 2g]
- IC50 (recombinant human HDAC1): 0.039 ± 0.003 µM
- Selectivity HDAC2/HDAC1 (recombinant human HDAC2): 8.2
- IC50 (recombinant human HDAC2): 0.32 ± 0.013 µM
- Selectivity HDAC3/HDAC1 (recombinant human HDAC3): 1.7
- IC50 (recombinant human HDAC3): 0.068 ± 0.002 µM
- Selectivity HDAC8/HDAC1 [5]: 8.2
- IC50 [5]: 0.32 ± 0.026 µM
- acetylation level of H3 ([1]; 6 h): increased the acetylation level of H3
- acetylation of H4 ([1]; 6 h): significantly increase acetylation of H4
- time-dependent increase in acetylation of H3 and H4 [1]: time-dependent increase in acetylation of H3 and H4 was observed
- acetylation of H3 and H4 [2]: acetylation of both H3 and H4 was increased
- time-dependent increase in acetylation of H3 and H4 [2]: time-dependent increase in acetylation of H3 and H4 was observed
- acetylation level of α-tubulin [3]: increased the acetylation level of α-tubulin
- acetylation of α-tubulin [4]: increased the acetylation of α-tubulin
- EC50 (HT-29 cells; [9]): > 50 µM
- EC50 (HT-29 cells; [10]): 1.1 ± 0.11 µM
- EC50 (SH-SY5Y cells; [11]): > 50 µM
- EC50 (SH-SY5Y cells; [12]): 1.2 ± 0.22 µM

Structure (SMILES): O=C(CCCCCCNCc1cc2ccccc2[nH]1)NO [compound 2j]
- IC50 (recombinant human HDAC1): 0.061 ± 0.0059 µM
- Selectivity HDAC2/HDAC1 (recombinant human HDAC2): 4.2
- IC50 (recombinant human HDAC2): 0.26 ± 0.015 µM
- Selectivity HDAC3/HDAC1 (recombinant human HDAC3): 0.41
- IC50 (recombinant human HDAC3): 0.025 ± 0.002 µM
- Selectivity HDAC8/HDAC1 [5]: 10
- IC50 [5]: 0.62 ± 0.042 µM
- acetylation level of H3 ([1]; 6 h): increased the acetylation level of H3
- time-dependent increase in acetylation of H3 and H4 [1]: time-dependent increase in acetylation of H3 and H4 was observed
- acetylation of H3 and H4 [2]: acetylation of both H3 and H4 was increased
- time-dependent increase in acetylation of H3 and H4 [2]: time-dependent increase in acetylation of H3 and H4 was observed
- acetylation level of α-tubulin [3]: increased the acetylation level of α-tubulin
- time-dependent increase in acetylation of α-tubulin [3]: time-dependent increase in acetylation of α-tubulin
- acetylation of α-tubulin [4]: increased the acetylation of α-tubulin
- brain concentration fold above IC50 for HDAC1 ([6]; 20 min): 6.7 fold
- brain concentration fold above IC50 for HDAC2 ([6]; 20 min): 1.6 fold
- brain concentration fold above IC50 for HDAC3 ([6]; 20 min): 16 fold
- plasma concentration fold higher than IC50 for HDAC1 ([6]; 20 min): 230 fold
- plasma concentration fold higher than IC50 for HDAC2 ([6]; 20 min): 54 fold
- plasma concentration fold higher than IC50 for HDAC3 ([6]; 20 min): 560 fold
- plasma concentration fold higher than IC50 for HDAC8 ([6]; 20 min): 23 fold
- brain concentration fold higher than the IC50 for class I HDACs ([6]; abstract): > 1.6 fold
- plasma concentration fold higher than the IC50 for class I HDACs ([6]; abstract): > 23 fold
- Plasma level ([6]; rat, 25 mg/kg i.p., 20 min): 3.82 ± 2.05 µg/mL
- molar concentration in brain ([6]; rat, 25 mg/kg i.p., 20 min): 0.41 µM
- molar concentration in plasma ([6]; rat, 25 mg/kg i.p., 20 min): 14 µM
- rat brain level ([6]; rat, 25 mg/kg i.p., 20 min): 122 ± 21 ng/mL
- Plasma level ([6]; rat, 25 mg/kg i.p., 40 min): 2.1 ± 0.72 µg/mL
- rat brain level ([6]; rat, 25 mg/kg i.p., 40 min): 107 ± 15 ng/mL
- percent left in RLM (microsomal stability [7]): 85%
- percent left in HLM (microsomal stability [8]): 12%
- EC50 (HT-29 cells; [9]): > 50 µM
- EC50 (HT-29 cells; [10]): 2.1 ± 0.17 µM
- EC50 (SH-SY5Y cells; [11]): > 50 µM
- EC50 (SH-SY5Y cells; [12]): 1.3 ± 0.39 µM
- Growth inhibition percentage MCF-7 24 h (MCF-7 cells): 61%
